Assay results: ChEMBL document CHEMBL4765316, “Discovery of novel resorcinol diphenyl ether-based PROTAC-like molecules as dual inhibitors and degraders of PD-L1” (Eur J Med Chem, 2020)
Calls of active or inactive are those of the source. The rule behind the calls is not given here.

Key:
[1] = biological target: Programmed cell death protein 1/Programmed cell death 1 ligand 1 (Homo sapiens, UniProt Q9NZQ7); assay: Inhibition of PD-1/PDL1 protein-protein interaction (unknown origin) by HTRF assay; format: protein-complex assay
[2] = tested on: A549; assay: Antiproliferative activity against human A549 cells assessed as reduction in cell viability incubated for 48 hrs by CCK8 assay; format: functional, cell-based; details: A549, 48 h
[3] = tested on: NCI-H1299; assay: Antiproliferative activity against human H1299 cells assessed as reduction in cell viability incubated for 48 hrs by CCK8 assay; format: functional, cell-based; details: NCI-H1299, 48 h
[4] = tested on: B16-F10; assay: Antiproliferative activity against mouse B16-F10 cells assessed as reduction in cell viability incubated for 48 hrs by CCK8 assay; format: functional, cell-based; details: B16-F10, 48 h
[5] = tested on: MDA-MB-231; assay: Antiproliferative activity against human MDA-MB-231 cells assessed as reduction in cell viability incubated for 48 hrs by CCK8 assay; format: functional, cell-based; details: MDA-MB-231, 48 h
[6] = tested on: Jurkat; assay: Antiproliferative activity against human jurkat cells assessed as reduction in cell viability incubated for 48 hrs by CCK8 assay; format: functional, cell-based
[7] = species on record: Homo sapiens; assay: Inhibition of PD1/PDL1 protein-protein interaction in human PBMC-derived CD3-positive T cells co-cultured with human Hep3B cells expressing human PDL1/OS-8 assessed as increase in IFN-gamma secretion at 3.3 uM measured after 72 hrs by ELISA relative to control; design: scale not given: the % may be the effect or the level left
[8] = species on record: Homo sapiens; assay: Inhibition of PD1/PDL1 protein-protein interaction in human PBMC-derived CD3-positive T cells co-cultured with human Hep3B cells expressing human PDL1/OS-8 assessed as increase in IFN-gamma secretion measured after 72 hrs by ELISA relative to control; details: dose 3.3-10 µM
[9] = biological target: T1, Protein cereblon/Programmed cell death 1 ligand 1 (Homo sapiens) (UniProt Q9NZQ7+Q96SW2); assay: Protac like activity at CRBN/PD-L1 in human MDA-MB-231 cells assessed as reduction in cell surface PD-L1 expression at 10 uM measured after 24 hrs by flow cytometry relative to control; format: functional, cell-based; design: scale not given: the % may be the effect or the level left
[10] = biological target: T1, Protein cereblon/Programmed cell death 1 ligand 1 (Homo sapiens); assay: Protac like activity at CRBN/PD-L1 in human MDA-MB-231 cells assessed as reduction in cell surface PD-L1 expression at 1 uM measured after 24 hrs by Western blotting analysis relative to control; format: functional, cell-based; design: scale not given: the % may be the effect or the level left
[11] = biological target: T1, Protein cereblon/Programmed cell death 1 ligand 1 (Homo sapiens); assay: Protac like activity at CRBN/PD-L1 in human MDA-MB-231 cells assessed as reduction in cell surface PD-L1 expression at 10 uM measured after 24 hrs by Western blotting analysis relative to control; format: functional, cell-based; design: scale not given: the % may be the effect or the level left
[12] = biological target: T1, Protein cereblon/Programmed cell death 1 ligand 1 (Homo sapiens); assay: Protac like activity at CRBN/PD-L1 in human MDA-MB-231 cells assessed as reduction in cell surface PD-L1 expression at 1 to 10 uM in presence of bafilomycin lysosomal measured after 24 hrs by Western blotting analysis relative to control; format: functional, cell-based; details: dose 1-10 µM
[13] = biological target: T1, Protein cereblon/Programmed cell death 1 ligand 1 (Homo sapiens); assay: Protac like activity at CRBN/PD-L1 in human MDA-MB-231 cells assessed as reduction in cell surface PD-L1 expression at 1 to 10 uM in presence of MG132 proteasome inhibitor measured after 24 hrs by Western blotting analysis relative to control; format: functional, cell-based; details: dose 1-10 µM

T1 sequence (Q96SW2 whole entry, looked up): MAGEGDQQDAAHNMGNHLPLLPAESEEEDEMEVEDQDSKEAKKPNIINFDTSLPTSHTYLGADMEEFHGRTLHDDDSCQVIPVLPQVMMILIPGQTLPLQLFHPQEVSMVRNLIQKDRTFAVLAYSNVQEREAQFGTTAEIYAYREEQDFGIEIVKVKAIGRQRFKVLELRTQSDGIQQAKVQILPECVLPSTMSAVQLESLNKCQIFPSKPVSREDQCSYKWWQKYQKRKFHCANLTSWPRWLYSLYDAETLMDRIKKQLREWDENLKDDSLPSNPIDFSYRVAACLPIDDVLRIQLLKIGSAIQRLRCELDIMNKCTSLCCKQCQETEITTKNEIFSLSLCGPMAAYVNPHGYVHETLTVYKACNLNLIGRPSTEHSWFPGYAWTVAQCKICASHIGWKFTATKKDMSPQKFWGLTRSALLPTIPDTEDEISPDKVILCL
T1 sequence (Q9NZQ7 whole entry, looked up): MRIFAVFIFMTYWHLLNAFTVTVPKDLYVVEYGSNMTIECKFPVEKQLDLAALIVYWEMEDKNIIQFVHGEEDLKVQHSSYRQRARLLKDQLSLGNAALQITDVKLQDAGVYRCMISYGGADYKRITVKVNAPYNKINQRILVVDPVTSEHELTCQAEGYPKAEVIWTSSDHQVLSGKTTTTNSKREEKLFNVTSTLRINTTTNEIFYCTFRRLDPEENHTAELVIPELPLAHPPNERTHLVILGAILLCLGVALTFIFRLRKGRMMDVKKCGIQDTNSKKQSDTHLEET
Programmed cell death protein 1/Programmed cell death 1 ligand 1, sequence (Q15116 whole entry): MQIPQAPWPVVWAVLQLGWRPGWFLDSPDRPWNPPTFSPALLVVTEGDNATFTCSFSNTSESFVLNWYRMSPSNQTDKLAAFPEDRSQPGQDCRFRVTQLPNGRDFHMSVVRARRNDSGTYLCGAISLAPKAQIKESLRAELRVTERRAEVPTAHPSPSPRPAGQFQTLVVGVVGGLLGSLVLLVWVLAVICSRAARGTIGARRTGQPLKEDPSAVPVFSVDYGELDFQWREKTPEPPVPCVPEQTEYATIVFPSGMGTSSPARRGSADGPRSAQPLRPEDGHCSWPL
Programmed cell death protein 1/Programmed cell death 1 ligand 1, sequence (Q9NZQ7 whole entry): as the sequence (Q9NZQ7 whole entry, looked up) above

Cc1c(COc2cc(OCc3cccc(C#N)c3)c(CN3CCCCC3C(=O)NCCCCCNc3cccc4c3C(=O)N(C3CCC(=O)NC3=O)C4=O)cc2Cl)cccc1-c1ccc2c(c1)OCCO2 (configuration not stated)
IC50 [1]: 193 nM

Cc1c(COc2cc(OCc3cccc(C#N)c3)c(CN3CCCCC3C(=O)N3CCN(C(=O)CCC(=O)Nc4cccc5c4C(=O)N(C4CCC(=O)NC4=O)C5=O)CC3)cc2Cl)cccc1-c1ccc2c(c1)OCCO2 (configuration not stated)
IC50 [1]: 25.2 nM | IC50 [2]: 9200 nM | IC50 [3]: > 10000 nM | IC50 [4]: 7300 nM | IC50 [5]: > 10000 nM | IC50 [6]: > 10000 nM

Cc1c(COc2cc(OCc3cccc(C#N)c3)c(CN3CCCCC3C(=O)NCCCNc3cccc4c3C(=O)N(C3CCC(=O)NC3=O)C4=O)cc2Cl)cccc1-c1ccccc1 (configuration not stated)
IC50 [1]: 97.3 nM

Cc1c(COc2cc(OCc3cccc(C#N)c3)c(CN3CCCCC3C(=O)NCCNC(=O)CCCC(=O)Nc3ccc4c(c3)C(=O)N(C3CCC(=O)NC3=O)C4=O)cc2Cl)cccc1-c1ccc2c(c1)OCCO2 (configuration not stated)
IC50 [1]: > 200 nM

Cc1c(COc2cc(OCc3cccc(C#N)c3)c(CN3CCCCC3C(=O)NCCCCCNc3cccc4c3C(=O)N(C3CCC(=O)NC3=O)C4=O)cc2Cl)cccc1-c1ccccc1 (configuration not stated)
IC50 [1]: 171 nM

Cc1c(COc2cc(OCc3cccc(C#N)c3)c(CN3CCCCC3C(=O)O)cc2Cl)cccc1-c1ccc2c(c1)OCCO2 (configuration not stated)
IC50 [1]: 56.6 nM

Cc1c(COc2cc(OCc3cccc(C#N)c3)c(CN3CCCCC3C(=O)N3CCN(C(=O)CCCC(=O)Nc4cccc5c4C(=O)N(C4CCC(=O)NC4=O)C5=O)CC3)cc2Cl)cccc1-c1ccccc1 (configuration not stated)
IC50 [1]: 26.1 nM | IC50 [2]: > 10000 nM | IC50 [3]: > 10000 nM | IC50 [4]: 10800 nM | IC50 [5]: > 10000 nM | IC50 [6]: > 11700 nM

Cc1c(COc2cc(OCc3cccc(C#N)c3)c(CN3CCCCC3C(=O)NCCCCNc3cccc4c3C(=O)N(C3CCC(=O)NC3=O)C4=O)cc2Cl)cccc1-c1ccc2c(c1)OCCO2 (configuration not stated)
IC50 [1]: 103 nM | IC50 [2]: > 10000 nM | IC50 [3]: > 10000 nM | IC50 [4]: > 10000 nM | IC50 [5]: > 10000 nM | IC50 [6]: > 10000 nM

Cc1c(COc2cc(OCc3cccc(C#N)c3)c(CN3CCCCC3C(=O)NCCCCCCNc3cccc4c3C(=O)N(C3CCC(=O)NC3=O)C4=O)cc2Cl)cccc1-c1ccccc1 (configuration not stated)
IC50 [1]: > 200 nM

Cc1c(COc2cc(OCc3cccc(C#N)c3)c(CN3CCCCC3C(=O)N3CCN(C(=O)CCC(=O)Nc4cccc5c4C(=O)N(C4CCC(=O)NC4=O)C5=O)CC3)cc2Cl)cccc1-c1ccccc1 (configuration not stated)
IC50 [1]: 44.5 nM | IC50 [2]: > 10000 nM | IC50 [3]: 9700 nM | IC50 [4]: 11400 nM | IC50 [5]: > 10000 nM | IC50 [6]: > 10000 nM

Nc1cccc2c1C(=O)N(C1CCC(=O)NC1=O)C2=O (configuration not stated) [POMALIDOMIDE]
IC50 [1]: > 10 nM

Cc1c(COc2cc(OCc3cccc(C#N)c3)c(CN3CCCCC3C(=O)NCCNC(=O)CCCC(=O)Nc3cccc4c3C(=O)N(C3CCC(=O)NC3=O)C4=O)cc2Cl)cccc1-c1ccc2c(c1)OCCO2 (configuration not stated)
IC50 [1]: > 200 nM

Cc1c(COc2cc(OCc3cccc(C#N)c3)c(CN3CCCCC3C(=O)NCCCCNC(=O)CCCC(=O)Nc3cccc4c3C(=O)N(C3CCC(=O)NC3=O)C4=O)cc2Cl)cccc1-c1ccccc1 (configuration not stated)
IC50 [1]: 121 nM

Cc1c(COc2cc(OCc3cccc(C#N)c3)c(CN3CCCCC3C(=O)NCCNC(=O)CCCC(=O)Nc3ccc4c(c3)C(=O)N(C3CCC(=O)NC3=O)C4=O)cc2Cl)cccc1-c1ccccc1 (configuration not stated)
IC50 [1]: 102 nM

Cc1c(COc2ccc(CN3CCCCC3C(=O)NCCNC(=O)CCCC(=O)Nc3cccc4c3C(=O)N(C3CCC(=O)NC3=O)C4=O)cc2Br)cccc1-c1ccccc1 (configuration not stated)
IC50 [1]: > 200 nM

Cc1c(COc2cc(OCc3cccc(C#N)c3)c(CN3CCCCC3C(=O)NCCNC(=O)COCC(=O)Nc3cccc4c3C(=O)N(C3CCC(=O)NC3=O)C4=O)cc2Cl)cccc1-c1ccccc1 (configuration not stated)
IC50 [1]: > 200 nM

Cc1c(COc2ccc(CN3CCCCC3C(=O)N3CCN(C(=O)CCCC(=O)Nc4cccc5c4C(=O)N(C4CCC(=O)NC4=O)C5=O)CC3)cc2Br)cccc1-c1ccccc1 (configuration not stated)
IC50 [1]: > 200 nM

Cc1c(COc2cc(OCc3cccc(C#N)c3)c(CN3CCCCC3C(=O)N3CCN(C(=O)CCCC(=O)Nc4cccc5c4C(=O)N(C4CCC(=O)NC4=O)C5=O)CC3)cc2Cl)cccc1-c1ccc2c(c1)OCCO2 (configuration not stated)
IC50 [1]: 39.2 nM | IC50 [2]: > 10000 nM | IC50 [3]: > 10000 nM | IC50 [4]: > 10000 nM | IC50 [5]: > 10000 nM | IC50 [6]: > 10000 nM | Activity [7]: 215% | Activity [8]: Dose-dependent effect | Activity [9]: 14% | Activity [10]: 21% | Activity [11]: 35% | Activity [12]: inactive | Activity [13]: Active

Cc1c(COc2cc(OCc3cccc(C#N)c3)c(CN3CCCCC3C(=O)NCCCCCCNc3cccc4c3C(=O)N(C3CCC(=O)NC3=O)C4=O)cc2Cl)cccc1-c1ccc2c(c1)OCCO2 (configuration not stated)
IC50 [1]: > 200 nM

Cc1c(COc2cc(OCc3cccc(C#N)c3)c(CN3CCCCC3C(=O)NCCNc3cccc4c3C(=O)N(C3CCC(=O)NC3=O)C4=O)cc2Cl)cccc1-c1ccc2c(c1)OCCO2 (configuration not stated)
IC50 [1]: 144 nM

Cc1c(COc2cc(OCc3cccc(C#N)c3)c(CN3CCCCC3C(=O)NCCCCCNC(=O)CCCC(=O)Nc3cccc4c3C(=O)N(C3CCC(=O)NC3=O)C4=O)cc2Cl)cccc1-c1ccccc1 (configuration not stated)
IC50 [1]: > 200 nM

Cc1c(COc2cc(OCc3cccc(C#N)c3)c(CN3CCCCC3C(=O)NCCCNC(=O)CCC(=O)Nc3cccc4c3C(=O)N(C3CCC(=O)NC3=O)C4=O)cc2Cl)cccc1-c1ccccc1 (configuration not stated)
IC50 [1]: > 200 nM

Cc1c(COc2cc(OCc3cccc(C#N)c3)c(CN3CCCCC3C(=O)NCCNc3cccc4c3C(=O)N(C3CCC(=O)NC3=O)C4=O)cc2Cl)cccc1-c1ccccc1 (configuration not stated)
IC50 [1]: 118 nM

Cc1c(COc2cc(OCc3cccc(C#N)c3)c(CN3CCCCC3C(=O)NCCNC(=O)COCC(=O)Nc3cccc4c3C(=O)N(C3CCC(=O)NC3=O)C4=O)cc2Cl)cccc1-c1ccc2c(c1)OCCO2 (configuration not stated)
IC50 [1]: > 200 nM

Cc1c(COc2cc(OCc3cccc(C#N)c3)c(CN3CCCCC3C(=O)NCCCCNc3cccc4c3C(=O)N(C3CCC(=O)NC3=O)C4=O)cc2Cl)cccc1-c1ccccc1 (configuration not stated)
IC50 [1]: 52.8 nM | IC50 [2]: 8200 nM | IC50 [3]: 10500 nM | IC50 [4]: > 10000 nM | IC50 [5]: > 10000 nM | IC50 [6]: > 10000 nM

Cc1c(COc2cc(OCc3cccc(C#N)c3)c(CN3CCCCC3C(=O)NCCCNc3cccc4c3C(=O)N(C3CCC(=O)NC3=O)C4=O)cc2Cl)cccc1-c1ccc2c(c1)OCCO2 (configuration not stated)
IC50 [1]: 135 nM

Cc1c(COc2ccc(CN3CCCCC3C(=O)NCCCCNc3cccc4c3C(=O)N(C3CCC(=O)NC3=O)C4=O)cc2Br)cccc1-c1ccccc1 (configuration not stated)
IC50 [1]: 197 nM

Cc1c(COc2cc(OCc3cccc(C#N)c3)c(CN3CCCCC3C(=O)NCCNC(=O)CCC(=O)Nc3cccc4c3C(=O)N(C3CCC(=O)NC3=O)C4=O)cc2Cl)cccc1-c1ccc2c(c1)OCCO2 (configuration not stated)
IC50 [1]: > 200 nM

Cc1c(COc2cc(OCc3cccc(C#N)c3)c(CN3CCCCC3C(=O)NCCNC(=O)CCC(=O)Nc3cccc4c3C(=O)N(C3CCC(=O)NC3=O)C4=O)cc2Cl)cccc1-c1ccccc1 (configuration not stated)
IC50 [1]: 98.8 nM

Cc1c(COc2cc(OCc3cccc(C#N)c3)c(CN3CCCCC3C(=O)NCCNC(=O)CCCC(=O)Nc3cccc4c3C(=O)N(C3CCC(=O)NC3=O)C4=O)cc2Cl)cccc1-c1ccccc1 (configuration not stated)
IC50 [1]: 123 nM
